Measured values: patent US4720506A, “Immunomodulating agent” (Nippon Shinyaku Company, Limited, priority 1982, dated 1988)

Tests used:
mice = assay: Acute toxicity in mice; assay type: in vivo; settings: 7th day
Procedure: The medicament was suspended in 3% "Tween-80" and the suspension was administered orally or intraperitonealy at a dose shown in Table 1 to mice (ddY weighing 20-25 g).

[1] = system: Methylated Human Albumin induced Delayed Type Hypersensitivity; assay: Methylated human albumin induced delayed type hypersensitivity (footpad swelling); assay type: in vivo, mice (C3H); settings: 4 days; for response vs control in vivo at 30 mg/kg / response vs control in vivo at 100 mg/kg / response vs control in vivo at 300 mg/kg: Mus musculus, 96 h
Procedure: Effect on Methylated Human Albumin induced Delayed Type Hypersensitivity
The medicament was administered orally for continuous 4 days including the immunization-day. On the 4th day from the immunization day, 25 μl of 0.1% methylated human albumin aqueous solution was subcutaneously injected to the footpad. After 24 hours, the thickness of the left and right footpad were measured, and the footpad swelling due to the delayed type hypersensitivity was represented as the difference between the thickness of the left and right footpad. The footpad swelling of the medicament-administration group was compared with that of physiological saline solution-administration group.

[2] = system: Sheep Erythrocytes induced Delayed Type Hypersensitivity; assay: Sheep erythrocytes induced delayed type hypersensitivity (footpad swelling); assay type: in vivo, mice (ddY); settings: Table 4, oral, 4 days, 24 hours after challenge
Procedure: Effect on Sheep Erythrocytes induced Delayed Type Hypersensitivity
40 μl of Sheep erythrocytes adjusted to the concentration of 1×10^7 /40 μl was subcutaneously injected to the right footpad of mice (ddY weighing 25-30 g) and the medicament was administered orally for continuous 4 days including the day, on which sheep erythrocytes were administered.
On the 4th day from the administration day of sheep erythrocytes, 40 μl of sheep erythrocytes adjusted to the concentration of 5×10^8 /40 μl was subcutaneously injected to the left footpad. After 24 hours, both of the thickness of the right and left footpad were measured. Footpad swelling due to the delayed type hypersensitivity was recognized as the difference between the thickness of the left and right footpad. The footpad swelling of the medicament-administration group was compared with that of physiological saline solution-administration group (control group).

[3] = system: Plaque-Forming Cells in Spleen against Sheep Erythrocytes; assay: Plaque-forming cells in spleen against sheep erythrocytes in mice; assay type: in vivo, mice (Balb/c); settings: oral, 4 days; for PFC, % Control: vs physiological saline
Procedure: Effect on Plaque-forming Cells in Spleen against Sheep Erythrocytes in mice
Balb/c mice of 5 weeks old were intravenously immunized with 1×10^8 sheep erythrocytes/mouse. 5 mice were used per group. Medicament was orally administered for 4 days from the day when the mice were immunized. Mice were sacrificed on the 5th day and the numbers of plaque-forming cells (PFC) in the spleen against sheep erythrocytes were determined by Fujiwara's modified method of Cunningham's method ["Method in Immunological Experiment A" edited by Japanese Society for Immunology, page 1272 (1974)].

Row | Compound | Mortality (mice; intraperitoneal, 1,000 mg/kg) | Mortality (mice; oral, 5,000 mg/kg) | Footpad swelling, mean value ± standard error ([1]; Experiment 2, oral, 30 mg/kg) | Footpad swelling, mean value ± standard error ([1]; Experiment 2, oral, 100 mg/kg) | Footpad swelling, mean value ± standard error ([1]; Experiment 2, oral, 300 mg/kg) | response vs control in vivo at 30 mg/kg ([1]; po, Experiment 2, 30 mg/kg) | response vs control in vivo at 100 mg/kg ([1]; po, Experiment 2, 100 mg/kg) | response vs control in vivo at 300 mg/kg ([1]; po, Experiment 2, 300 mg/kg) | % Control of footpad swelling ([2]; 100 mg/kg) | Footpad swelling, mean value ± standard error ([1]; Experiment 1, oral, 300 mg/kg) | response vs control in vivo at 300 mg/kg ([1]; po, Experiment 1, 300 mg/kg) | other results
1 | CC(=O)Nc1ccc(C(C)(C)C(=O)O)cc1 [Compound 11, 2-(4-Acetylaminophenyl)-2-methylpropionic acid] | 0/5 | 0/5 | 54.5 ± 1.7 × 0.01 mm | 55.4 ± 1.8 × 0.01 mm | 51.3 ± 2.3 × 0.01 mm | 93.3% | 94.9% | 87.8% |  |  |  | 
2 | CCOC(=O)C(C)c1ccc(NC(C)=O)cc1 (stereo not drawn) [Compound 9, Ethyl 2-(4-acetylaminophenyl)propionate] | 0/5 |  | 51.4 ± 1.8 × 0.01 mm | 55.3 ± 2.0 × 0.01 mm | 56.0 ± 2.0 × 0.01 mm | 88% | 94.7% | 95.9% |  |  |  | Mortality (mice; oral, 1,500 mg/kg): 0/5
3 | CCOC(=O)Cc1ccc(N)cc1 [Compound 1, Ethyl p-aminophenylacetate] | 1/5 |  |  |  |  |  |  |  | 85.9% |  |  | % Control of footpad swelling ([2]; 30 mg/kg): 79.8%; % Control of footpad swelling ([2]; 300 mg/kg): 77.9%; Mortality (mice; oral, 3,000 mg/kg): 0/5; PFC, mean value ± standard error ([3]; Table 3, 30 mg/kg): 89.4 ± 10.4 × 3,125/spleen; PFC, % Control ([3]; Table 3, 30 mg/kg): 135%; PFC, mean value ± standard error ([3]; Table 3, 100 mg/kg): 60.6 ± 8.6 × 3,125/spleen; PFC, % Control ([3]; Table 3, 100 mg/kg): 91%; PFC, mean value ± standard error ([3]; Table 3, 300 mg/kg): 82.0 ± 5.2 × 3,125/spleen; PFC, % Control ([3]; Table 3, 300 mg/kg): 123%
4 | CC(=O)Nc1ccc(CC(=O)O)cc1 [Compound 10, 4-Acetylaminophenylacetate] | 0/5 | 0/5 | 46.1 ± 1.7 × 0.01 mm | 41.8 ± 2.5 × 0.01 mm | 42.3 ± 1.8 × 0.01 mm | 78.9% | 71.6% | 72.4% | 85.7% | 44.5 ± 1.6 × 0.01 mm | 70.3% | % Control of footpad swelling ([2]; 30 mg/kg): 77.0%; % Control of footpad swelling ([2]; 300 mg/kg): 71.6%; PFC, mean value ± standard error ([3]; Table 2, 30 mg/kg): 116.4 ± 8.64 × 2,500/spleen; PFC, % Control ([3]; Table 2, 30 mg/kg): 181%; PFC, mean value ± standard error ([3]; Table 2, 100 mg/kg): 107.2 ± 10.5 × 2,500/spleen; PFC, % Control ([3]; Table 2, 100 mg/kg): 167%; PFC, mean value ± standard error ([3]; Table 2, 300 mg/kg): 82.2 ± 7.0 × 2,500/spleen; PFC, % Control ([3]; Table 2, 300 mg/kg): 128%
5 | CCCC(=O)Nc1ccc(CC(=O)O)cc1 [Compound 14, 4-n-Butyrylaminophenylacetic acid] | 0/5 |  | 50.9 ± 2.0 × 0.01 mm | 51.8 ± 1.4 × 0.01 mm | 56.7 ± 1.5 × 0.01 mm | 87.2% | 88.7% | 97.1% |  |  |  | 
6 | CC(C)C(=O)Nc1ccc(CC(=O)O)cc1 [Compound 13] | 1/5 | 0/5 |  |  |  |  |  |  |  | 58.5 ± 2.4 × 0.01 mm | 92.4% | Footpad swelling, mean value ± standard error ([1]; Experiment 1, oral, 30 mg/kg): 57.2 ± 1.9 × 0.01 mm; Footpad swelling, mean value ± standard error ([1]; Experiment 1, oral, 100 mg/kg): 58.2 ± 1.9 × 0.01 mm; response vs control in vivo at 30 mg/kg ([1]; po, Experiment 1, 30 mg/kg): 90.4%; response vs control in vivo at 100 mg/kg ([1]; po, Experiment 1, 100 mg/kg): 91.9%
7 | CC(=O)Nc1ccc(C(C)C(=O)O)cc1 (stereo not drawn) [Compound 12, 2-(4-Acetylaminophenyl)propionic acid] | 0/5 | 0/5 | 54.5 ± 1.7 × 0.01 mm | 52.1 ± 1.5 × 0.01 mm | 52.4 ± 1.9 × 0.01 mm | 93.2% | 89.2% | 89.7% |  |  |  | 
8 | Cn1cnc([N+](=O)[O-])c1Sc1ncnc2nc[nH]c12 [Azathioprine, reference compound] |  |  |  | 41.4 ± 1.5 × 0.01 mm |  |  |  |  | 49.0% |  |  | response vs control in vivo at 100 mg/kg ([1]; Experiment 2, oral, 100 mg/kg): 70.9%
9 | CCOC(=O)Cc1ccc(NC(C)=O)cc1 [Compound 4, Ethyl 4-acetylaminophenylacetate] |  |  |  |  |  |  |  |  | 93.8% |  |  | % Control of footpad swelling ([2]; 30 mg/kg): 91.5%; % Control of footpad swelling ([2]; 300 mg/kg): 68.4%; Footpad swelling, mean value ± standard error ([1]; Experiment 3, oral, 30 mg/kg): 48.3 ± 2.6 × 0.01 mm; Footpad swelling, mean value ± standard error ([1]; Experiment 3, oral, 100 mg/kg): 49.4 ± 3.5 × 0.01 mm; Footpad swelling, mean value ± standard error ([1]; Experiment 3, oral, 300 mg/kg): 56.5 ± 2.9 × 0.01 mm; response vs control in vivo at 30 mg/kg ([1]; po, Experiment 3, 30 mg/kg): 75.5%; response vs control in vivo at 100 mg/kg ([1]; po, Experiment 3, 100 mg/kg): 77.2%; response vs control in vivo at 300 mg/kg ([1]; po, Experiment 3, 300 mg/kg): 88.3%
10 | CCOC(=O)Cc1ccc(NC(=O)C(C)C)cc1 [Compound 6, Ethyl 4-(isobutyrylamino)phenylacetate] | 0/5 | 1/5 |  |  |  |  |  |  |  | 56.8 ± 2.2 × 0.01 mm | 89.7% | Footpad swelling, mean value ± standard error ([1]; Experiment 1, oral, 30 mg/kg): 59.0 ± 1.8 × 0.01 mm; Footpad swelling, mean value ± standard error ([1]; Experiment 1, oral, 100 mg/kg): 55.6 ± 1.2 × 0.01 mm; response vs control in vivo at 30 mg/kg ([1]; po, Experiment 1, 30 mg/kg): 93.2%; response vs control in vivo at 100 mg/kg ([1]; po, Experiment 1, 100 mg/kg): 87.8%
11 | Cc1ccc(C(=O)Nc2ccc(CC(=O)O)cc2)cc1 [Compound 15, 4-(4-Methylbenzoylamino)phenylacetic acid] | 5/5 | 5/5 |  |  |  |  |  |  |  | 57.4 ± 1.5 × 0.01 mm | 90.7% | Mortality (mice; intraperitoneal, 300 mg/kg): 0/5; Mortality (mice; oral, 1,000 mg/kg): 0/5; Footpad swelling, mean value ± standard error ([1]; Experiment 1, oral, 30 mg/kg): 54.2 ± 1.7 × 0.01 mm; Footpad swelling, mean value ± standard error ([1]; Experiment 1, oral, 100 mg/kg): 56.7 ± 1.8 × 0.01 mm; response vs control in vivo at 30 mg/kg ([1]; po, Experiment 1, 30 mg/kg): 85.6%; response vs control in vivo at 100 mg/kg ([1]; po, Experiment 1, 100 mg/kg): 89.6%
